From US20050282833A1, “Pharmacological treatment of psoriasis” (priority 2002, published 2005)

Tests used:
patients with psoriasis [1] = details: cited from earlier work
pustular psoriasis = details: in vivo; cited from earlier work
patients with psoriasis [2] = details: 10 week trial, cited from earlier work
[3] = system: human herpesvirus (HHV-6); details: ranking among herpes viruses; cited from earlier work
cytomegalovirus (CMV) = details: ranking among herpes viruses; cited from earlier work
[4] = system: patients with psoriatic lesions / psoriatic arthritis; details: cited from earlier work
[5] = system: patient with a history of reoccurring plaque psoriasis; test: Case study 2: Valtrex (valacyclovir) treatment of a plaque psoriasis patient; type: in vivo, human; details: tablets 500 mg 3 times a day for several weeks, then 1.0 gram 3 times a day for several weeks; person
Method: A person with a history of reoccurring plaque psoriasis over the last 30 years, as diagnosed by their physician, began treatment with […] (valacyclovir) tablets at 500 mg taken 3 times a day for several weeks. Dosage of […] increased to 1.0 gram taken 3 times a day for several weeks. Both the psoriatic lesions and other symptoms associated with psoriasis improved and cleared to 75-80% recovery.

[6] = system: patient with a history of plaque psoriasis; test: Case study 1: valacyclovir treatment of a plaque psoriasis patient; type: in vivo, human
Method: A patient with a history of plaque psoriasis over the last several years was diagnosed by their physician. Patient was treated with valacyclovir tablets at 500 mg taken 2 times a day for 20 days.

[7] = system: psoriatic lesions of patients; details: once daily over 24 days; cited from earlier work
[8] = system: patients with plaque psoriasis; details: after 8 weeks of therapy; cited from earlier work

For basiliximab, the “long-lasting clearing of lesions after last treatment” value (patients with psoriasis [1]; one patient with acute exacerbating psoriasis) is listed as “more than 10 weeks” and the improvement of lesions (patients with psoriasis [1]; second patient with stable chronic plaque psoriasis) is listed as “did not show improvement”.

In the case of “infliximab: monoclonal antibody directed against TNF-α”, the “treating and sustaining clearing of pustular psoriasis” value (pustular psoriasis) is given as “highly effective”.

In the case of hu1124: anti-CD11a-antibody, the “patients with headaches, chills, and fever” value (patients with psoriasis [2]) is given as “over half of the patients” and the improvement of psoriasis (patients with psoriasis [2]; high dose group) is given as “only moderate improvement”.

In the case of `Nc1nc2c(ncn2COCCO)c(=O)[nH]1` [acyclovir], the activity against virus [3] is listed as “least active” and the activity against virus (cytomegalovirus (CMV)) is listed as “least active”.

In the case of etanercept, the “mean improvement of psoriatic lesions” value ([4]; 12 weeks) is listed as 46% and the “response to treatment in patients diagnosed with psoriatic arthritis” value ([4]; psoriatic arthritis) is listed as 73%.

With `CC(C)[C@H](N)C(=O)OCCOCn1cnc2c(=O)[nH]c(N)nc21` [valacyclovir] the “recovery (psoriatic lesions and other symptoms improved and cleared)” value [5] was 75-80%, the “reoccurrence of the psoriatic symptoms” value ([6]; since treatment ended) was “No reoccurrence” and the “recovery from the psoriasis” value ([6]; tablets 500 mg 2 times a day for 20 days, person, plaque psoriasis) was “complete recovery”.

B1: IL-10: cytokine, inhibitor of Th1-type cell priming and Th2-type mediator (protein, UniProt P22301 19-178, looked up)
Interleukin-10: SPGQGTQSENSCTHFPGNLPNMLRDLRDAFSRVKTFFQMKDQLDNLLLKESLLEDFKGYLGCQALSEMIQFYLEEVMPQAENQDPDIKAHVNSLGENLKTLRLRLRRCHRFLPCENKSKAVEQVKNAFNKLQEKGIYKAMSEFDIFINYIEAYMTMKIRN
For B1, the “improvement to psoriatic lesions” value [7] is given as “some improvement”.

B2: daclizumab: monoclonal antibody masking the cellular receptor CD25 for IL-2 (antibody, chains of the INN, looked up, V domains shown)
VH: QVQLVQSGAEVKKPGSSVKVSCKASGYTFTSYRMHWVRQAPGQGLEWIGYINPSTGYTEYNQKFKDKATITADESTNTAYMELSSLRSEDTAVYYCARGGGVFDYWGQGTLVTVSS
VL: DIQMTQSPSTLSASVGDRVTITCSASSSISYMHWYQQKPGKAPKLLIYTTSNLASGVPARFSGSGSGTEFTLTISSLQPDDFATYYCHQRSTYPLTFGQGTKVEVK
For B2, the “patients experiencing a reduction in severity of plaque psoriasis” value [8] is listed as 30%.
